From ChEMBL document CHEMBL4715829, “Heterodimeric Rifampicin-Tobramycin conjugates break intrinsic resistance of Pseudomonas aeruginosa to doxycycline and chloramphenicol in vitro and in a Galleria mellonella in vivo model” (Eur J Med Chem, 2019)
In brackets after ≈: the same amount, converted by molar mass.

Legend:
[1] = tested on: Escherichia coli; assay: Antibacterial activity against Escherichia coli ATCC 25922 assessed as reduction in bacterial growth incubated for 18 hrs by broth microdilution assay; assay type: functional
[2] = tested on: Pseudomonas aeruginosa; assay: Antibacterial activity against Pseudomonas aeruginosa ATCC 27853 assessed as reduction in bacterial growth incubated for 18 hrs by broth microdilution assay; assay type: functional
[3] = tested on: Staphylococcus aureus; assay: Antibacterial activity against methicillin-resistance Staphylococcus aureus ATCC 33592 assessed as reduction in bacterial growth incubated for 18 hrs by broth microdilution assay; assay type: functional
[4] = tested on: Enterococcus faecium; assay: Antibacterial activity against Enterococcus faecium ATCC 27270 assessed as reduction in bacterial growth incubated for 18 hrs by broth microdilution assay; assay type: functional
[5] = tested on: Streptococcus pneumoniae; assay: Antibacterial activity against Streptococcus pneumoniae ATCC 49619 assessed as reduction in bacterial growth incubated for 18 hrs by broth microdilution assay; assay type: functional
[6] = tested on: Escherichia coli; assay: Antibacterial activity against Escherichia coli CAN-ICU 63074 (AMK 32) assessed as reduction in bacterial growth incubated for 18 hrs by broth microdilution assay; assay type: functional
[7] = tested on: Pseudomonas aeruginosa; assay: Antibacterial activity against wild type Pseudomonas aeruginosa PAO1 assessed as reduction in bacterial growth incubated for 18 hrs by broth microdilution assay; assay type: functional
[8] = tested on: Pseudomonas aeruginosa; assay: Antibacterial activity against Pseudomonas aeruginosa 200 harboring efflux mutant assessed as reduction in bacterial growth incubated for 18 hrs by broth microdilution assay; assay type: functional
[9] = tested on: Pseudomonas aeruginosa; assay: Antibacterial activity against Pseudomonas aeruginosa PAO1 assessed as reduction in bacterial growth by measuring minocycline MIC at <=10 uM in presence of minocycline incubated for 18 hrs by broth microdilution assay based checkerboard assay (reference value: 8 microg/ml); assay type: functional; conditions: dose microM <=10
[10] = tested on: Pseudomonas aeruginosa; assay: Antibacterial activity against Pseudomonas aeruginosa PAO1 assessed as reduction in bacterial growth by measuring cefotaxime MIC at <=[…] uM in presence of cefotaxime incubated for 18 hrs by broth microdilution assay based checkerboard assay (reference value: […] microg/ml); assay type: functional; conditions: dose microM <=10
[11] = tested on: Pseudomonas aeruginosa; assay: Antibacterial activity against Pseudomonas aeruginosa PAO1 assessed as reduction in bacterial growth by measuring trimethoprim MIC at <=10 uM in presence of trimethoprim incubated for 18 hrs by broth microdilution assay based checkerboard assay (reference value: 64 microg/ml); assay type: functional; conditions: dose microM <=10
[12] = tested on: Pseudomonas aeruginosa; assay: Antibacterial activity against Pseudomonas aeruginosa PAO1 assessed as reduction in bacterial growth by measuring fosfomycin MIC at <=[…] uM in presence of fosfomycin incubated for 18 hrs by broth microdilution assay based checkerboard assay (reference value: […] microg/ml); assay type: functional; conditions: dose microM <=10
[13] = tested on: Pseudomonas aeruginosa; assay: Antibacterial activity against Pseudomonas aeruginosa PAO1 assessed as reduction in bacterial growth by measuring nitrofurantoin MIC at <=10 uM in presence of nitrofurantoin incubated for 18 hrs by broth microdilution assay based checkerboard assay (reference value: 512 microg/ml); assay type: functional; conditions: dose microM <=10
[14] = tested on: Pseudomonas aeruginosa; assay: Antibacterial activity against Pseudomonas aeruginosa PAO1 assessed as reduction in bacterial growth by measuring erythromycin MIC at <=10 uM in presence of erythromycin incubated for 18 hrs by broth microdilution assay based checkerboard assay (reference value: 256 microg/ml); assay type: functional; conditions: dose microM <=10
[15] = tested on: Pseudomonas aeruginosa; assay: Antibacterial activity against Pseudomonas aeruginosa PAO1 assessed as reduction in bacterial growth by measuring pleuromutilin MIC at <=10 uM in presence of pleuromutilin incubated for 18 hrs by broth microdilution assay based checkerboard assay (reference value: 512 microg/ml); assay type: functional; conditions: dose microM <=10
[16] = tested on: Pseudomonas aeruginosa; assay: Antibacterial activity against Pseudomonas aeruginosa PAO1 assessed as reduction in bacterial growth by measuring colistin MIC at <=10 uM in presence of colistin incubated for 18 hrs by broth microdilution assay based checkerboard assay (reference value: 1 microg/ml); assay type: functional; conditions: dose microM <=10
[17] = tested on: Pseudomonas aeruginosa; assay: Antibacterial activity against Pseudomonas aeruginosa PAO1 assessed as fractional inhibitory concentration index in presence of Tobramycin incubated for 18 hrs by broth microdilution assay based checkerboard assay; assay type: functional
[18] = tested on: Pseudomonas aeruginosa; assay: Antibacterial activity against Pseudomonas aeruginosa PAO1 assessed as fractional inhibitory concentration index in presence of Tigecycline incubated for 18 hrs by broth microdilution assay based checkerboard assay; assay type: functional
[19] = tested on: Pseudomonas aeruginosa; assay: Antibacterial activity against Pseudomonas aeruginosa PAO1 assessed as fractional inhibitory concentration index in presence of Meropenem incubated for 18 hrs by broth microdilution assay based checkerboard assay; assay type: functional
[20] = tested on: Pseudomonas aeruginosa; assay: Antibacterial activity against Pseudomonas aeruginosa PAO1 assessed as fractional inhibitory concentration index in presence of Vancomycin incubated for 18 hrs by broth microdilution assay based checkerboard assay; assay type: functional
[21] = tested on: Pseudomonas aeruginosa; assay: Antibacterial activity against Pseudomonas aeruginosa PAO1 assessed as fractional inhibitory concentration index in presence of Fosfomycin incubated for 18 hrs by broth microdilution assay based checkerboard assay; assay type: functional
[22] = tested on: Pseudomonas aeruginosa; assay: Antibacterial activity against Pseudomonas aeruginosa PAO1 assessed as fractional inhibitory concentration index in presence of Chloramphenicol incubated for 18 hrs by broth microdilution assay based checkerboard assay; assay type: functional
[23] = tested on: Pseudomonas aeruginosa; assay: Antibacterial activity against Pseudomonas aeruginosa PAO1 assessed as fractional inhibitory concentration index in presence of Clindamycin incubated for 18 hrs by broth microdilution assay based checkerboard assay; assay type: functional
[24] = tested on: Pseudomonas aeruginosa; assay: Antibacterial activity against Pseudomonas aeruginosa PAO1 assessed as fractional inhibitory concentration index in presence of Erythromycin incubated for 18 hrs by broth microdilution assay based checkerboard assay; assay type: functional
[25] = tested on: Pseudomonas aeruginosa; assay: Antibacterial activity against Pseudomonas aeruginosa PAO1 assessed as fractional inhibitory concentration index in presence of Pleuromutilin incubated for 18 hrs by broth microdilution assay based checkerboard assay; assay type: functional
[26] = tested on: Pseudomonas aeruginosa; assay: Antibacterial activity against Pseudomonas aeruginosa PAO1 assessed as fractional inhibitory concentration index in presence of Colistin incubated for 18 hrs by broth microdilution assay based checkerboard assay; assay type: functional
[27] = tested on: Pseudomonas aeruginosa; assay: Antibacterial activity against Pseudomonas aeruginosa 100036 assessed as fractional inhibitory concentration index in presence of doxycycline incubated for 18 hrs by broth microdilution assay; assay type: functional
[28] = tested on: Pseudomonas aeruginosa; assay: Antibacterial activity against Pseudomonas aeruginosa 264-101354 assessed as fractional inhibitory concentration index in presence of doxycycline incubated for 18 hrs by broth microdilution assay; assay type: functional
[29] = tested on: Pseudomonas aeruginosa; assay: Antibacterial activity against Pseudomonas aeruginosa 101243 assessed as fractional inhibitory concentration index in presence of chloramphenicol incubated for 18 hrs by broth microdilution assay; assay type: functional
[30] = tested on: Pseudomonas aeruginosa; assay: Antibacterial activity against Pseudomonas aeruginosa 259-96918 assessed as fractional inhibitory concentration index in presence of doxycycline incubated for 18 hrs by broth microdilution assay; assay type: functional
[31] = tested on: Pseudomonas aeruginosa; assay: Antibacterial activity against Pseudomonas aeruginosa 91433 assessed as fractional inhibitory concentration index in presence of chloramphenicol incubated for 18 hrs by broth microdilution assay; assay type: functional
[32] = Cytotoxicity against human HEK293 cells assessed as cell viability at <10 uM incubated for 48 hrs by prestoblue assay; assay type: cell-based; conditions: read-out: Activity
[33] = Hemolytic activity in porcine erythrocyte at 1024 ug/ml incubated for 1 hr; assay type: ADME, cell-based, Sus scrofa; conditions: pig, porcine erythrocytes, at 1024 µg/mL, read-out: Activity
[34] = Cytotoxicity against human HepG2 cells assessed as cell viability at 50 uM incubated for 48 hrs by prestoblue assay; assay type: cell-based; conditions: read-out: Activity
[35] = tested on: Pseudomonas aeruginosa; assay: Antibacterial activity against Pseudomonas aeruginosa 259-96918 assessed as reduction in bacterial growth incubated for 18 hrs by broth microdilution assay; assay type: functional
[36] = tested on: Pseudomonas aeruginosa; assay: Antibacterial activity against Pseudomonas aeruginosa 262-101856 assessed as reduction in bacterial growth incubated for 18 hrs by broth microdilution assay; assay type: functional
[37] = tested on: Pseudomonas aeruginosa; assay: Antibacterial activity against Pseudomonas aeruginosa 114228 assessed as reduction in bacterial growth incubated for 18 hrs by broth microdilution assay; assay type: functional

Structure (SMILES) | MIC [1] [µg/mL] | MIC [2] [µg/mL] | MIC [3] [µg/mL] | MIC [4] [µg/mL] | MIC [5] [µg/mL] | MIC [6] [µg/mL] | MIC [7] [µg/mL] | MIC [8] [µg/mL] | MIC [9] [µg/mL] | MIC [10] [µg/mL] | MIC [11] [µg/mL] | MIC [12] [µg/mL] | MIC [13] [µg/mL] | MIC [14] [µg/mL] | MIC [15] [µg/mL] | MIC [16] [µg/mL] | fractional inhibitory concentration index (FICI) [29] | MIC [35] [µg/mL] | MIC [36] [µg/mL] | MIC [37] [µg/mL] | also measured
CO[C@H]1/C=C/O[C@@]2(C)Oc3c(C)c(O)c4c(O)c(c(/C=N/N5CCN(Cc6cn(CCCCCCO[C@@H]7[C@@H](O[C@H]8O[C@H](CO)[C@@H](O)[C@H](N)[C@H]8O)[C@H](N)C[C@H](N)[C@H]7O[C@H]7O[C@H](CN)[C@@H](O)C[C@H]7N)nn6)CC5)c(O)c4c3C2=O)NC(=O)/C(C)=C\C=C\[C@H](C)[C@H](O)[C@@H](C)[C@@H](O)[C@@H](C)[C@H](OC(C)=O)[C@@H]1C.Cl.Cl.Cl.Cl.Cl | ≥ 32 | > 32 | > 32 | > 32 | 2 | > 32 | 512 | 128 | 2 | 16 | 32 | 2 | 256 | 32 | 128 | 0.5 | 0.187 | > 128 | > 256 | > 128 | fractional inhibitory concentration index (FICI) [17]: 1.03; fractional inhibitory concentration index (FICI) [18]: 0.51; fractional inhibitory concentration index (FICI) [19]: 1.03; fractional inhibitory concentration index (FICI) [20]: 1.03; fractional inhibitory concentration index (FICI) [21]: 0.15; fractional inhibitory concentration index (FICI) [22]: 0.06; fractional inhibitory concentration index (FICI) [23]: 0.28; fractional inhibitory concentration index (FICI) [24]: 0.15; fractional inhibitory concentration index (FICI) [25]: 0.28; fractional inhibitory concentration index (FICI) [26]: 0.53; fractional inhibitory concentration index (FICI) [27]: 0.078; fractional inhibitory concentration index (FICI) [28]: 0.064; fractional inhibitory concentration index (FICI) [30]: <0.156; fractional inhibitory concentration index (FICI) [31]: 0.375; viability at 48 h [32]: > 90%; hemolysis at 1 h, 1024 ug/ml [33]: < 2%; viability at 48 h, 50 µM [34]: > 70%
NC[C@H]1O[C@H](O[C@H]2[C@H](O)[C@@H](O[C@H]3O[C@H](CO)[C@@H](O)[C@H](N)[C@H]3O)[C@H](N)C[C@@H]2N)[C@H](N)C[C@@H]1O [TOBRAMYCIN] | 0.5 (≈ 1.07 µM) | 1 (≈ 2.14 µM) | 0.5 (≈ 1.07 µM) | 16 (≈ 34.2 µM) | 2 (≈ 4.28 µM) | 8 (≈ 17.1 µM) | 1 (≈ 2.14 µM) | 0.5 (≈ 1.07 µM) |  |  |  |  |  |  |  |  | 1.5 | 256 (≈ 548 µM) | 1020 (≈ 2190 µM) | 8 (≈ 17.1 µM) | fractional inhibitory concentration index (FICI) [27]: 1.5; fractional inhibitory concentration index (FICI) [28]: 1.5; fractional inhibitory concentration index (FICI) [30]: 1.125; fractional inhibitory concentration index (FICI) [31]: 1.5
CO[C@H]1/C=C/O[C@@]2(C)Oc3c(C)c(O)c4c(O)c(c(/C=N/N5CCN(C)CC5)c(O)c4c3C2=O)NC(=O)/C(C)=C\C=C\[C@H](C)[C@H](O)[C@@H](C)[C@@H](O)[C@@H](C)[C@H](OC(C)=O)[C@@H]1C [RIFAMPIN] | 8 (≈ 9.72 µM) | 32 (≈ 38.9 µM) | > 128 | ≤ 0.25 | ≤ 0.25 | 16 (≈ 19.4 µM) | 16 (≈ 19.4 µM) | 16 (≈ 19.4 µM) |  |  |  |  |  |  |  |  | 1.5 | 16 (≈ 19.4 µM) | 512 (≈ 622 µM) | 16 (≈ 19.4 µM) | 
CO[C@H]1/C=C/O[C@@]2(C)Oc3c(C)c(O)c4c(O)c(c(/C=N/N5CCN(Cc6cn(CCCCO[C@@H]7[C@@H](O[C@H]8O[C@H](CO)[C@@H](O)[C@H](N)[C@H]8O)[C@H](N)C[C@H](N)[C@H]7O[C@H]7O[C@H](CN)[C@@H](O)C[C@H]7N)nn6)CC5)c(O)c4c3C2=O)NC(=O)/C(C)=C\C=C\[C@H](C)[C@H](O)[C@@H](C)[C@@H](O)[C@@H](C)[C@H](OC(C)=O)[C@@H]1C.O=C(O)C(F)(F)F.O=C(O)C(F)(F)F.O=C(O)C(F)(F)F.O=C(O)C(F)(F)F.O=C(O)C(F)(F)F | > 32 | > 32 | > 32 | 32 | 1 | > 32 | 512 | 256 | 2 | 16 | 64 | 16 | 512 | 128 | 512 | 0.5 |  | > 128 | > 256 | > 128 | fractional inhibitory concentration index (FICI) [17]: 1.03; fractional inhibitory concentration index (FICI) [18]: 0.51; fractional inhibitory concentration index (FICI) [19]: 1.03; fractional inhibitory concentration index (FICI) [20]: 1.03; fractional inhibitory concentration index (FICI) [21]: 1.03; fractional inhibitory concentration index (FICI) [22]: 0.28; fractional inhibitory concentration index (FICI) [23]: 0.53; fractional inhibitory concentration index (FICI) [24]: 0.53; fractional inhibitory concentration index (FICI) [25]: 1.03; fractional inhibitory concentration index (FICI) [26]: 0.53; viability at 48 h [32]: > 90%; hemolysis at 1 h, 1024 ug/ml [33]: < 2%; viability at 48 h, 50 µM [34]: > 70%
